Results published in publication PMC7076013 (Scientific Reports, 2020).

Tests used:
Type in all cases: cell-based, human
A375 cells [1] = assay: Light microscopy of A375 cultures (oval vs. fibroblast-like cells); settings: A375, treated cells, 48 h
Source text: It is known that the A375 cell line has a heterogeneous morphology with a subpopulation of highly metastatic oval cells. […] Thus, it can be concluded that compound 5 affected the two populations in different manners with a stronger effect on the metastatic oval cells.

518A2 cells [2] = assay: Intracellular ROS/RNS (DHR), 518A2; settings: 518A2, 48 h; untreated 70.7 ± 5.5
Experimental: (§1) Given that analogue 5 is designed for NO release, the intracellular release of nitric oxide and production of reactive oxygen species (ROS)/reactive nitrogen species (RNS) was measured by means of redox-sensitive dyes — 4-amino-5-methylamino-2′,7′-difluorofluorescein diacetate (DAF) and dihydrorhodamine-123 (DHR) — after exposure for 48 h (Fig. 11). […] It is well documented that highly intensified production of ROS/RNS is connected with extreme cell damage and consequent cell death, whereas moderate ROS production is involved in the regulation of intracellular processes often involved in cell cycle arrest, proliferation, and differentiation[63],[64]. Apart from the moderate intracellular NO release, it was important to evaluate whether 5 released NO extracellularly. The production of NO from a nitrate group is a three-electron reduction process that can happen by a number of possible 2e^– and 1e^– pathways, commonly involving the initial liberation of a nitrite. A common method of detecting the release of NO in the extracellular compartment is the detection of nitrite ions by the Griess reaction, which quantifies the nitrite resulting from the oxidation of NO[66],[67]. […] Introduction of a nitrate moiety was also found to be beneficial in the case of rofecoxib. […]

A375 cells [3] = assay: Caspase activation (ApoStat), A375; settings: A375, 48 h
Experimental: (§2) The results were ex pressed as a p er centage of a v alue obtained for the untr eated control cells that was arbitrarily set to be 100%. A non- linear regression analysis of obtained results was done b y using Gr aphPad Prism software to calculat e IC50 values.
3.3. AnnexinV-FITC/P I and caspase det ection.
A375 cells were treated with 5 for 48 h, trypsinized, and stained with AnnexinV-FITC (Ann) or propidium iodide (PI), or apostat as proposed by the manufacturer. C ells were anal yz ed b y C yFlow® Space Part ec u sing the PartecFloM ax ® software.
(§3) 3.4. Cell staining with CFSE.
(§4) To quantify cell division rate, cells were incubated for 10 min at 37 °C in the presence of […]
(§5) subsequentl y quantified using flow c ytomet r y.
(§6) Cell motilit y and proliferation was anal yz ed using wound healing assa y. A375 and 518A2 cells were cultivated in 6-well plates until 80% of confluence in monola yers w as reached. Th e scratch was made using a steri le pipette tip which was drawn across the center of the wells. The scratch ed cell la yers w ere wash ed twice with fres h PBS to remove loose or damaged cells. Cells […]
(§7) 4% paraformald eh yde (PFA) for 10 min at room temperature . The wounds were digitally photographed using a Ni kon inverted microscope TS2 with 5 MPIX cam era.
(§8) 3.6. Measurement of intracellular nitric oxide

518A2 cells [4] = assay: Ann/PI apoptosis and caspase activation, 518A2; settings: 518A2, 48 h
518A2 cells [5] = assay: Intracellular NO (DAF), 518A2; settings: 518A2, 48 h; untreated 44.9 ± 5.9
Experimental: as §1

A375 cells [6] = assay: CFSE cell proliferation, A375; settings: A375, 72 h
Experimental: It was observed that the wound in the control of the A375 cells decreased from 172 ± 69 μm to 127 ± 13 μm, compared to the treated cells where it stayed at 177 ± 32 μm. […] (Fig. 10A).To confirm this, the cell proliferation rate was determined after 72 h of incubation in the presence of 5 of the carboxyfluorescein succinimidyl ester (CFSE)-stained cells. […] These findings were further confirmed by fluorescence microscopy of 4′,6-diamidino-2-phenylindole (DAPI)-stained cells (Fig. 10C), for which predominantly large nuclei with scarce nucleoli characteristic for interphase were observed on treatment of A375 cells with 5[60]. In addition, sporadic oblong nuclei with condensed chromatin, typical for apoptosis, were also observed (25 ± 9%). On the other hand in the DAPI-stained 518A2 cells typical apoptotic shrunken nuclei and apoptotic bodies were dominant (60 ± 2%)[61]. The different modes of action on the two melanoma cell lines indicate that cell specific characteristics define the outcome of the treatment with 5. […] Recent data on the compensatory proliferation in response to induced apoptotic cell death in the tumor tissue even favor a nonaggressive approach in the therapy of advanced malignancy. […]
as §4
subsequentl y quantified using flow c ytomet r y. […]

A375 cells [7] = assay: Ann/PI double staining apoptosis, A375
Experimental: as §2
3.3. AnnexinV-FITC/P I and caspase det ection. […]
C ells were anal yz ed b y
C yFlow® Space Part ec u sing the PartecFloM ax ® software.
as §3, §4, §5, §6, §7, §8

518A2 cells [8] = assay: Fluorescence microscopy of DAPI-stained cells, 518A2; settings: 518A2, 72 h
Experimental: It was observed that the wound in the control of the A375 cells decreased from 172 ± 69 μm to 127 ± 13 μm, compared to the treated cells where it stayed at 177 ± 32 μm. […] (Fig. 10A).To confirm this, the cell proliferation rate was determined after 72 h of incubation in the presence of 5 of the carboxyfluorescein succinimidyl ester (CFSE)-stained cells. […] These findings were further confirmed by fluorescence microscopy of 4′,6-diamidino-2-phenylindole (DAPI)-stained cells (Fig. 10C), for which predominantly large nuclei with scarce nucleoli characteristic for interphase were observed on treatment of A375 cells with 5[60]. In addition, sporadic oblong nuclei with condensed chromatin, typical for apoptosis, were also observed (25 ± 9%). On the other hand in the DAPI-stained 518A2 cells typical apoptotic shrunken nuclei and apoptotic bodies were dominant (60 ± 2%)[61]. The different modes of action on the two melanoma cell lines indicate that cell specific characteristics define the outcome of the treatment with 5. […] Recent data on the compensatory proliferation in response to induced apoptotic cell death in the tumor tissue even favor a nonaggressive approach in the therapy of advanced malignancy.

4-[4-(methylnitrooxy)phenyl]-3-(1,2-dicarba-closo-dodecaboranyl)furan-2(5 H)-one [Compound 5]
% of oval cells (A375 cells [1]; control 46 ± 2.8): 28 ± 2.6% | % of fibroblast-like cells (A375 cells [1]; control 54 ± 3.2): 72 ± 7.4% | ROS/RNS production, mean fluorescence (DHR) (518A2 cells [2]): 65.6 ± 0.9 | total caspase activity (ApoStat) (A375 cells [3]): only a slight enhancement of total caspase activity | apoptosis (Ann/PI, caspase) (518A2 cells [4]): strong caspase-dependent apoptosis | intracellular NO, mean fluorescence (DAF) (518A2 cells [5]): 97.7 ± 1.2 | elevation of % of undivided cells (CFSE) vs control (A375 cells [6]): 38 ± 8% | apoptosis (Ann/PI) (A375 cells [7]; A375, 48 h): did not promote significant apoptosis | apoptosis after prolonged incubation (A375 cells [7]; A375, 72 h total): not accompanied by the appearance of apoptotic cells | apoptotic shrunken nuclei and apoptotic bodies (DAPI) (518A2 cells [8]): 60 ± 2%
